Biological target in the first experiment: not listed separately
The experiment can be described thus: Displacement of [3H]vesamicol from Vesicular Acetylcholine Transporter (VAChT). In general terms: Displacement assays read how much labelled ligand stays bound in the presence of the test substance.
One may read the Ki as the dissociation constant of the complex between target and ligand, obtained from inhibition or displacement. In the case of `O[C@@H]1CCNC[C@H]1N1CCC(c2ccccc2)CC1`, affinity was put at a Ki of 2900 nM.

`O[C@@H]1C[C@@H]2[C@H](CCCN2Cc2cccc(I)c2)C[C@H]1N1CCC(c2ccccc2)CC1` [(4aR,6R,7R,8aR)-1-(3-Iodo-benzyl)-6-(4-phenyl-piperidin-1-yl)-decahydro-quinolin-7-ol]: the affinity, expressed as Ki, was 5.2 nM.

Regarding `O[C@@H]1C[C@@H]2[C@H](CCCN2Cc2ccc(F)cc2)C[C@H]1N1CCC(c2ccccc2)CC1` [(4aR,6R,7R,8aR)-1-(4-Fluoro-benzyl)-6-(4-phenyl-piperidin-1-yl)-decahydro-quinolin-7-ol], the affinity corresponds to a Ki of 10 nM.

As for `O[C@@H]1C[C@H]2CCCN(C/C=C/I)[C@@H]2C[C@H]1N1CCC(c2ccccc2)CC1` [(4aR,6R,7R,8aR)-1-((E)-3-Iodo-allyl)-7-(4-phenyl-piperidin-1-yl)-decahydro-quinolin-6-ol], the Ki was determined as 0.4 nM.

As to `O=C(c1ccccc1)N1CCC[C@@H]2C[C@@H](O)[C@H](N3CCC(c4ccccc4)CC3)C[C@H]21` [[(4aR,6R,7R,8aR)-6-Hydroxy-7-(4-phenyl-piperidin-1-yl)-octahydro-quinolin-1-yl]-phenyl-methanone], the inhibitory constant (Ki) turned out to be 0.3 nM.

The molecule `O[C@@H]1C[C@H]2CCCN(Cc3cccc(I)c3)[C@@H]2C[C@H]1N1CCC(c2ccccc2)CC1` [trans-trans-1-(3-iodobenzyl)-7-(4-phenylpiperidin-1-yl)-decahydroquinolin-6-ol] had a Ki of 0.26 nM.

Take `O[C@@H]1C[C@H]2CCCN(Cc3ccc(F)cc3)[C@@H]2C[C@H]1N1CCC(c2ccccc2)CC1` [trans-trans-1-(4-fluorobenzyl)-7-(4-phenylpiperidin-1-yl)-decahydroquinolin-6-ol]: the affinity corresponds to a Ki of 0.99 nM.

A further experiment deals with Sigma-2 receptor (Rattus norvegicus). The experiment can be described thus: Binding affinity against Sigma-2 receptor in rat liver membranes using [3H]DTG (DuPont-NEN) as radioligand in the presence of (+)-pentazocine (100 nM).
In the case of `O[C@@H]1C[C@H]2CCCN(C/C=C/I)[C@@H]2C[C@H]1N1CCC(c2ccccc2)CC1` [(4aR,6R,7R,8aR)-1-((E)-3-Iodo-allyl)-7-(4-phenyl-piperidin-1-yl)-decahydro-quinolin-6-ol], the inhibition constant (Ki) is 363 nM.

For `O[C@@H]1CCN(Cc2cccc(I)c2)C[C@H]1N1CCC(c2ccccc2)CC1` [(-)-1''-(3-Iodo-benzyl)-4-phenyl-[1,3'']bipiperidinyl-4''-ol], the Ki worked out at 190 nM.

Source of the values: BindingDB's records for doi:10.1021/jm980560x (University of Minnesota, 1999).
